Here are results for one compound from patent publication US10207988B2, “Methods and compositions for treatment of cancer and autoimmune disease” (THE JACKSON LABORATORY, priority 2011, dated 2019).

Each structure is given as a SMILES string.

Data set [1] concerns BXSB.Yaa Cd8/IL15−/− mice. The data set is described as follows: mouse systemic lupus erythematosus (SLE) model treated with DIDS. It is filed as in vivo. The source says: BXSB.Yaa Cd8/IL15−/− mice are an established model for SLE. These mice display many characteristics of human SLE including hypergammaglobulinemia, circulating antinuclear antibodies and immune complex medicated glomerulonephritis, and ultimately succumb to disease around 24 weeks of age (Andrews et al. 1978, J Exp Med 148: 1198-215; Dixon et al. 1978, Arthritis Rheum 21: S64-7; Izui et al. 2000, Int Rev Immunol 19: 447-72). Genetic deletion of Cd8a and IL15 from the model results in a similar clinical phenotype which appears much early with survival averaging 14 weeks of age (McPhee et al. 2011, J Immunol 187:4695-4704)
Six week old male BXSB.Cg-Cd8a<tm1Mak> IL15<tm1Imx>/Dcr (abbreviated as BXSB.Yaa Cd8/IL15−/−) mice were retro-orbitally bled into heparin primed tubes to collect serum. 25 mg/kg (n=5) or 50 mg/kg DIDS (n=6) in 4% potassium bicarbonate with PBS or an equivalent volume of 4% potassium bicarbonate (n=2 and n=4) was administered intraperitoneally on day 0, and every seven days for five weeks. Mice were weighed weekly and serum was collected at 14 day intervals for a 5-week period. These mice were then aged for survival. The serum was analyzed by ELISA for IgG1 and IgG2b content. For the ELISA plates were coated with goat anti-mouse Ig (IgG1 or IgG2b) and incubated overnight at […] Plates were washed three times and P-nitrophenyl Phosphate (p-NPP, AMRESCO) was applied, incubated until standards developed adequately and read on a SpectraMax ELISA plate reader using SoftmaxPro software. Data are expressed as concentration of IgG (mg/ml) based on titration of isotype-specific purified mouse standards. […] Survival data was analyzed using Graphpad Prism software and assessed for statistical significance using both the log-rank Mantel Cox with (FIG. 20A for the 25 mg/kg group with a p value of 0.4289 and FIG. 20B for the 50 mg/kg group with a p value of 0.3698) and Gehan-Breslow-Wilcoxan tests (FIG. 21A for the 25 mg/kg group with a p value of 0.7003 and FIG. 21B for the 50 mg/kg group with a p value of 0.7505).

Data set [2] deals with phosphor-H2AX foci in AID+ and AID− primary human CLL cells. The experiment in a line: phospho-H2AX foci in primary human CLL cells treated with DIDS. It is filed as cell-based. The conditions noted are these: 30 μM DIDS, 2 days in culture, AID+ versus AID− samples. The source says:
Primary human CLL patient derived cells were obtained from peripheral bleeds collected at the time of routine clinical monitoring. Primary peripheral blood samples were collected via routine venipuncture into BD Vacutainer CPT Cell Separation Tubes (Becton Dickinson). Samples were centrifuged to separate red blood cells (RBC) and then inverted to resuspend the monocuclear cells in their own plasma. Samples were stored overnight at the site of collection at room temperature then shipped via courier to the site of analysis. Each sample was tested for AID expression status by reverse transcription PCR (RT-PCR) to detect presence of the human AID mRNA (see Example 11). Samples were then divided into AID+ (those showing detectable levels of AID mRNA) and AID− (those showing no detectable AID mRNA above background) groups. Multiple independent cultures from different AID+ and AID− samples were initiated in standard RPMI-1640 medium containing 10% FBS plus either 0 or 30 μM DIDS. After 2 days in culture, cells from each culture/condition were fixed using paraformaldehyde, mounted on microscope coverslips, permeabilized by washing with weak detergent, and were processed for immunofluorescent detection of the DNA double strand break marker phosphor-H2AX (primary antibody: cat. No. A300-081A, Bethyl Laboratories; 1:400 dilution). […]

For data set [3], the system named is activated caspase 3 (AC3) in AID+ and AID− primary human CLL cells. The experiment in a line: activated caspase 3 (AC3) staining in primary human CLL cells treated with DIDS. In kind it is cell-based. The conditions noted are these: 30 μM DIDS, 3 days in culture. An excerpt: Primary human CLL patient derived cells were obtained from peripheral bleeds collected at the time of routine clinical monitoring. Primary peripheral blood samples were collected via routine venipuncture into BD Vacutainer CPT Cell Separation Tubes. Samples were centrifuged to separate red blood cells (RBC) and then inverted to resuspend the mononuclear cells in their own plasma. Samples were stored overnight at the site of collection at room temperature then shipped via courier to the site of analysis. Each sample was tested for AID expression status by reverse transcription PCR (RT-PCR) to detect presence of the human AID mRNA (see Example 11). Samples were then divided into AID+ (those showing detectable levels of AID mRNA) and AID− (those showing no detectable AID mRNA above background) groups. Multiple independent cultures from different AID+ and AID− samples were initiated in standard RPMI-1640 medium containing 10% FBS plus either 0 or 30 μM DIDS. After 3 days in culture, cells from were fixed with paraformaldehyde, mounted on microscope coverslips, permeabilized by washing with weak detergent, and processed for immunofluorescent detection of the apoptosis marker activated caspase 3 (AC3) (primary antibody: cat. No. ab13847, Abcam; 1:100 dilution). Nuclear DNA was counterstained with 4′,6-diamidino-2-phenylindole (DAPI). […]

Turning to `O=S(=O)([O-])c1cc(N=C=S)ccc1/C=C/c1ccc(N=C=S)cc1S(=O)(=O)[O-].[Na+].[Na+]` [DIDS, 4,4′diisothiocyanostilbene-2,2′-disulfonic acid], the “IgG2b serum content (ELISA)” value in data set [1] (25 mg/kg DIDS intraperitoneally every seven days) is on record as “striking decrease”. For the same compound, the body weight result in data set [1] (25 mg/kg DIDS intraperitoneally every seven days for five weeks, versus controls) is on record as “no weight difference”. In addition, the “IgG1 serum content (ELISA)” value in data set [1] (DIDS intraperitoneally every seven days) is reported as “No significant difference”. Moreover, in data set [2], the “phosphor-H2AX foci per cell (DNA double strand break marker)” value is recorded as “inhibits repair of AID-mediated genomic DNA double strand breaks (DSBs)”. In addition, the “fraction of cells showing positive staining for AC3” value in data set [3] was “higher fraction of AC3-positive cells”.
